Assays:
RNR (RNR1:RNR2 1:1) = target: T1, RNR (RNR1:RNR2 1:1) (Homo sapiens, UniProt P23921); test: RNR enzyme activity, rapid-fire mass spectrometry (RF/MS) assay; assay type: biochemical; settings: [RNR] 50 nM, 1:1 RNR1:RNR2; CDP 5 μM; ATP 1 mM; 37° C., 45 min; compounds screened up to 50 μM
T1 sequence (P23921 1-792): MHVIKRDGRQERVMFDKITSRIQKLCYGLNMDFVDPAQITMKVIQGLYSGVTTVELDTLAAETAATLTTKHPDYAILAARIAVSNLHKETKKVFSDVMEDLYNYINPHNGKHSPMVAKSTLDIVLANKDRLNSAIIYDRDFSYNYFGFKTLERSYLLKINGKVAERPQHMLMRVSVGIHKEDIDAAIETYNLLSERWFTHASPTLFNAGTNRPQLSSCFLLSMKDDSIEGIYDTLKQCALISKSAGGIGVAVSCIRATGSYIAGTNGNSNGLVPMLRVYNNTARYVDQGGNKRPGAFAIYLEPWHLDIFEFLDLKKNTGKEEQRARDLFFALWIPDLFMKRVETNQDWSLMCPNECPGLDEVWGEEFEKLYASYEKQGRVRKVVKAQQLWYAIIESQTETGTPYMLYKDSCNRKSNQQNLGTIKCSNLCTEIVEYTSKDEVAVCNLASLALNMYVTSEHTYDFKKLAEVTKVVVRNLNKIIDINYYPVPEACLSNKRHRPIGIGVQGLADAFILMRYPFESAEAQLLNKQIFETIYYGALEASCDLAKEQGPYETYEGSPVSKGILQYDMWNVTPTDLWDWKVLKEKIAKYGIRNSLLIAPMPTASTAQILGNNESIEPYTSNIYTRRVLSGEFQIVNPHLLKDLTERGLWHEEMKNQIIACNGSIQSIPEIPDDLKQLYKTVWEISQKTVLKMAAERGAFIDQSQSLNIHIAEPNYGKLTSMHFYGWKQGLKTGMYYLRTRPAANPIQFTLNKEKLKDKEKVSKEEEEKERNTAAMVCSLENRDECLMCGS
In short: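 Human RNR (50 nM final, RNR1:RNR2 1:1) pre-incubated 15 min at room temperature, then reacted 45 min at 37 °C with 5 μM CDP and 1 mM ATP, no NADPH. Reaction quenched with 6% HCOOH; product quantified by rapid-fire mass spectrometry.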

[1] = system: pCHK1 (S345) in Colo320 DM cells; test: Alphalisa assay, detection of pCHK1 (S345) in Colo320 DM cells; assay type: cell-based, human; settings: Homo sapiens, COLO 320DM, compound overnight (approximately 16 hours)
In short: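 Colo320 DM cells plated overnight, then exposed to compound for about 16 h at 37 °C (DMSO <0.5%). Cells lysed and phospho-CHK1 (S345) quantified by AlphaLisa SureFire with sequential 60 min acceptor and donor incubations at room temperature.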

IC50 (RNR (RNR1:RNR2 1:1)) [µM]	IC50 [1] [µM]	SMILES
< 0.02	≤ 1	Cc1ccc(F)c([C@@H](C)[C@@H](c2n[nH]c(=O)o2)N2CN(CCN3CCOCC3)c3cc(Cl)ccc3S2(=O)=O)c1C [Example 84, 5-((1S,2R)-1-(6-chloro-4-(2-morpholinoethyl)-1,1-dioxido-3,4-dihydro-2H-benzo[e][1,2,4]thiadiazin-2-yl)-2-(6-fluoro-2,3-dimethylphenyl)propyl)-1,3,4-oxadiazol-2 (3H)-one]
< 0.02	1 to 5	Cc1ccc(F)c([C@@H](C)[C@@H](c2n[nH]c(=O)o2)N2CN([C@H]3CCN(C)C3)c3cc(Cl)ccc3S2(=O)=O)c1C [Example 86, 5-((1S,2R)-1-(6-chloro-4-((S)-1-methylpyrrolidin-3-yl)-1,1-dioxido-3,4-dihydro-2H-benzo[e][1,2,4]thiadiazin-2-yl)-2-(6-fluoro-2,3-dimethylphenyl)propyl)-1,3,4-oxadiazol-2 (3H)-one]
< 0.02	≤ 1	Cc1ccc(F)c([C@@H](C)[C@@H](c2n[nH]c(=O)o2)N2CN(C3CCOCC3)c3nc(Cl)ccc3S2(=O)=O)c1C [Example 87, 5-((1S,2R)-1-(6-chloro-1,1-dioxido-4-(tetrahydro-2H-pyran-4-yl)-3,4-dihydro-2H-pyrido[2,3-e][1,2,4]thiadiazin-2-yl)-2-(6-fluoro-2,3-dimethylphenyl)propyl)-1,3,4-oxadiazol-2 (3H)-one]
< 0.02	≤ 1	Cc1ccc(F)c([C@@H](C)[C@@H](c2n[nH]c(=O)o2)N2CN([C@@H]3CCOC[C@H]3F)c3cc(Cl)ccc3S2(=O)=O)c1C [Example 97, 5-((1S,2R)-1-(6-chloro-4-((3S,4R)-3-fluorotetrahydro-2H-pyran-4-yl)-1,1-dioxido-3,4-dihydro-2H-benzo[e][1,2,4]thiadiazin-2-yl)-2-(6-fluoro-2,3-dimethylphenyl)propyl)-1,3,4-oxadiazol-2 (3H)-one]
< 0.02	≤ 1	Cc1ccc(F)c([C@@H](C)[C@@H](c2n[nH]c(=O)o2)N2CN([C@@H]3CCN(CCF)C3)c3cc(Cl)ccc3S2(=O)=O)c1C [Example 104, 5-((1S,2R)-1-(6-chloro-4-((R)-1-(2-fluoroethyl)pyrrolidin-3-yl)-1,1-dioxido-3,4-dihydro-2H-benzo[e][1,2,4]thiadiazin-2-yl)-2-(6-fluoro-2,3-dimethylphenyl)propyl)-1,3,4-oxadiazol-2 (3H)-one]
< 0.02	≤ 1	Cc1ccc(F)c([C@@H](C)[C@@H](c2n[nH]c(=O)o2)N2CN([C@H]3CCN(CCF)C3)c3cc(Cl)ccc3S2(=O)=O)c1C [Example 106, 5-((1S,2R)-1-(6-chloro-4-((S)-1-(2-fluoroethyl)pyrrolidin-3-yl)-1,1-dioxido-3,4-dihydro-2H-benzo[e][1,2,4]thiadiazin-2-yl)-2-(6-fluoro-2,3-dimethylphenyl)propyl)-1,3,4-oxadiazol-2 (3H)-one]

Second part, the compound before the results:

SMILES	IC50 (RNR (RNR1:RNR2 1:1)) [µM]	IC50 [1] [µM]
Cc1ccc(F)c([C@@H](C)[C@@H](c2n[nH]c(=O)o2)N2CN(CC(F)F)c3cc(Cl)ccc3S2(=O)=O)c1C [Example 88, 5-((1S,2R)-1-(6-chloro-4-(2,2-difluoroethyl)-1,1-dioxido-3,4-dihydro-2H-benzo[e][1,2,4]thiadiazin-2-yl)-2-(6-fluoro-2,3-dimethylphenyl)propyl)-1,3,4-oxadiazol-2 (3H)-one]	< 0.02	≤ 1
CC(=O)c1cc(Cl)cc2c1S(=O)(=O)N([C@H](c1n[nH]c(=O)o1)[C@H](C)c1c(F)ccc(C)c1C)CN2C1CC1 [Example 95, 5-((1S,2R)-1-(8-acetyl-6-chloro-4-cyclopropyl-1,1-dioxido-3,4-dihydro-2H-benzo[e][1,2,4]thiadiazin-2-yl)-2-(6-fluoro-2,3-dimethylphenyl)propyl)-1,3,4-oxadiazol-2 (3H)-one]	< 0.02	≤ 1
Cc1ccc(F)c([C@@H](C)[C@@H](c2n[nH]c(=O)o2)N2CN(C3CN(CC(F)(F)F)C3)c3cc(Cl)ccc3S2(=O)=O)c1C [Example 96, 5-((1S,2R)-1-(6-chloro-1,1-dioxido-4-(1-(2,2,2-trifluoroethyl)azetidin-3-yl)-3,4-dihydro-2H-benzo[e][1,2,4]thiadiazin-2-yl)-2-(6-fluoro-2,3-dimethylphenyl)propyl)-1,3,4-oxadiazol-2 (3H)-one]	< 0.02	≤ 1
COC(C)(C)CN1CN([C@H](c2n[nH]c(=O)o2)[C@H](C)c2c(F)ccc(C)c2C)S(=O)(=O)c2ccc(Cl)cc21 [Example 98, 5-((1S,2R)-1-(6-chloro-4-(2-methoxy-2-methylpropyl)-1,1-dioxido-3,4-dihydro-2H-benzo[e][1,2,4]thiadiazin-2-yl)-2-(6-fluoro-2,3-dimethylphenyl)propyl)-1,3,4-oxadiazol-2 (3H)-one]	< 0.02	≤ 1
Cc1ccc(F)c([C@@H](C)[C@@H](c2n[nH]c(=O)o2)N2CN([C@@H]3CCN(CC(F)(F)F)C3)c3cc(Cl)ccc3S2(=O)=O)c1C [Example 99, 5-((1S,2R)-1-(6-chloro-1,1-dioxido-4-((R)-1-(2,2,2-trifluoroethyl)pyrrolidin-3-yl)-3,4-dihydro-2H-benzo[e][1,2,4]thiadiazin-2-yl)-2-(6-fluoro-2,3-dimethylphenyl)propyl)-1,3,4-oxadiazol-2 (3H)-one]	0.02 to 0.1	≤ 1
Cc1ccc(F)c([C@@H](C)[C@@H](c2n[nH]c(=O)o2)N2CN(C3CC3)c3cc(Cl)cc(C(C)Cl)c3S2(=O)=O)c1C (stereo partly drawn) [Example 100, 5-((1S,2R)-1-(6-chloro-8-(1-chloroethyl)-4-cyclopropyl-1,1-dioxido-3,4-dihydro-2H-benzo[e][1,2,4]thiadiazin-2-yl)-2-(6-fluoro-2,3-dimethylphenyl)propyl)-1,3,4-oxadiazol-2 (3H)-one]	0.02 to 0.1	1 to 5
Cc1ccc(F)c([C@@H](C)[C@@H](c2n[nH]c(=O)o2)N2CN([C@H]3CCN(CC(F)(F)F)C3)c3cc(Cl)ccc3S2(=O)=O)c1C [Example 101, 5-((1S,2R)-1-(6-chloro-1,1-dioxido-4-((S)-1-(2,2,2-trifluoroethyl)pyrrolidin-3-yl)-3,4-dihydro-2H-benzo[e][1,2,4]thiadiazin-2-yl)-2-(6-fluoro-2,3-dimethylphenyl)propyl)-1,3,4-oxadiazol-2 (3H)-one]	0.02 to 0.1	1 to 5
CC(=O)c1cc(Cl)cc2c1S(=O)(=O)N([C@H](c1n[nH]c(=O)o1)[C@H](C)c1c(F)ccc(C)c1C)CO2 [Example 102, 5-((1S,2R)-1-(8-acetyl-6-chloro-1,1-dioxidobenzo[e][1,4,3]oxathiazin-2 (3H)-yl)-2-(6-fluoro-2,3-dimethylphenyl)propyl)-1,3,4-oxadiazol-2 (3H)-one]	< 0.02	≤ 1
CC(=O)c1cc(Cl)cc2c1S(=O)(=O)N([C@H](c1n[nH]c(=O)o1)[C@@H](C)c1c(F)ccc(C)c1C)CO2 [Example 103, 5-((1S,2S)-1-(8-acetyl-6-chloro-1,1-dioxidobenzo[e][1,4,3]oxathiazin-2 (3H)-yl)-2-(6-fluoro-2,3-dimethylphenyl)propyl)-1,3,4-oxadiazol-2 (3H)-one]	1 to 10	5 to 10
Cc1ccc(F)c([C@@H](C)[C@@H](c2n[nH]c(=O)o2)N2CN(CCN3CCN(C)CC3)c3cc(Cl)ccc3S2(=O)=O)c1C [Example 105, 5-((1S,2R)-1-(6-chloro-4-(2-(4-methylpiperazin-1-yl)ethyl)-1,1-dioxido-3,4-dihydro-2H-benzo[e][1,2,4]thiadiazin-2-yl)-2-(6-fluoro-2,3-dimethylphenyl)propyl)-1,3,4-oxadiazol-2 (3H)-one]	< 0.02	1 to 5

From patent publication US20260085067A1, “CYCLIC SULFONAMIDE RIBONUCLEOTIDE REDUCTASE (RNR) INHIBITORS AND USES THEREOF” (Boundless Bio, Inc., priority 2022, published 2026)
